In test [1] the test system is MCF7. Kind of test: cells. The following applies: Homo sapiens, MCF7, 72 h.
In test [2] the test system is A549. Kind of test: cells. The settings on record: Homo sapiens, A549, 72 h.
Description: Antiproliferative activity against human A549 cells after 72 hrs by MTT assay
Test [3] has as its system HCT-116. Kind of test: Antiproliferative activity against human HCT116 cells after 72 hrs by MTT assay. In kind it is functional, cell-based. The settings on record: HCT-116, 72 h.
The test system of test [4] is HeLa. Kind of test: Antiproliferative activity against human HeLa cells after 72 hrs by MTT assay. In kind it is functional, cell-based.
The test system of test [5] is HT-29. Kind of test: cells. The following applies: Homo sapiens, HT-29, 72 h.
The target of test [6] is T1, Dihydrofolate reductase (Homo sapiens, UniProt P00374).
T1 sequence (P00374 whole entry): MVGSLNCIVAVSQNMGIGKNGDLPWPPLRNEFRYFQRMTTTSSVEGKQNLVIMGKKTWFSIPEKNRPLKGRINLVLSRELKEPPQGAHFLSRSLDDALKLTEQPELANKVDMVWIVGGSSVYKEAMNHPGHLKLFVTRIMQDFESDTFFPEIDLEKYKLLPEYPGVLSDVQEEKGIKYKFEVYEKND
Kind of test: Inhibition of human dihydrofolate reductase by spectrophotometric analysis.

In test [7] the target is Thymidylate synthase (Homo sapiens) (UniProt P04818). Kind of test: Inhibition of human recombinant His-tagged thymidylate synthase assessed as N5,N10-methylenetetrahydrofolate oxidation to dihydrofolate at 50 uM after 20 mins by UV spectrophotometric analysis relative to control.
Thymidylate synthase (Homo sapiens), sequence (P04818 2-313 limits assumed): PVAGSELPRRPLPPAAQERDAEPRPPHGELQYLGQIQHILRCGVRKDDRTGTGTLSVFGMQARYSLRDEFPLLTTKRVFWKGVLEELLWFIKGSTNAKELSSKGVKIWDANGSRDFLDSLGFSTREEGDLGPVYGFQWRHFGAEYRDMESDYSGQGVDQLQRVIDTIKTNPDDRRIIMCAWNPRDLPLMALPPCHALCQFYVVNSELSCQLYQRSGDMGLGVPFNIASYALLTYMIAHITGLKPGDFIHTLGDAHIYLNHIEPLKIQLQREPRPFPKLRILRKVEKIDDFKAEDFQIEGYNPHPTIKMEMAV
The test system of test [8] is HCT-116. Kind of test: Induction of DNA damage in human HCT116 cells assessed as formation of marker ser-139 phosphorylated H2AX nuclear foci after 2 hrs by immunofluorescence assay. In kind it is functional, cell-based.
The target of test [9] is T2, Dihydrofolate reductase (Homo sapiens) (UniProt P00374).
T2 sequence (whole entry): T1 sequence (P00374 whole entry)
Kind of test: Inhibition of human dihydrofolate reductase at 500 nM by spectrophotometric analysis relative to control.

In test [10] the test system is HCT-116. Kind of test: Cell cycle arrest in human HCT116 cells assessed as accumulation at G0/G1 phase at IC50 after 24 hrs by propidium iodide staining-based FACS flow cytometric analysis (reference value: 63.07%). In kind it is functional.
Test [11] has as its system HCT-116. Kind of test: Cell cycle arrest in human HCT116 cells assessed as accumulation at S phase at IC50 after 24 hrs by propidium iodide staining-based FACS flow cytometric analysis (reference value: 25.39%). In kind it is functional.
The subject of test [12] is HCT-116. Kind of test: Induction of DNA damage in human HCT116 cells assessed as G2/M checkpoint activation measured as reduction in mitotic index after 2 hrs by immunofluorescence assay. The class given is functional.
Test [13] relates to HCT-116. Kind of test: Cell cycle arrest in human HCT116 cells assessed as accumulation at G2/M phase at IC50 after 24 hrs by propidium iodide staining-based FACS flow cytometric analysis (reference value: 11.54%). The class given is functional.
For test [14], the system named is HT-29. Kind of test: Antiproliferative activity against human HT-29 cells at 20 uM after 72 hrs by MTT assay relative to control. The following applies: HT-29, 72 h. The class given is functional, cell-based.
Test [15] concerns HCT-116. Kind of test: Antiproliferative activity against human HCT116 cells at 20 uM after 72 hrs by MTT assay relative to control. In kind it is functional, cell-based. The settings on record: HCT-116, 72 h.
Test [16] concerns HeLa. Kind of test: Antiproliferative activity against human HeLa cells at 20 uM after 72 hrs by MTT assay relative to control. In kind it is functional, cell-based.
Test [17] relates to MCF7. Kind of test: Antiproliferative activity against human MCF7 cells at 20 uM after 72 hrs by MTT assay relative to control. In kind it is functional, cell-based. The settings on record: MCF7, 72 h.
For test [18], the target named is Thymidylate synthase (Homo sapiens) (UniProt P04818). The following applies: 1 uM.
Description: Inhibition of human recombinant His-tagged thymidylate synthase assessed as N5,N10-methylenetetrahydrofolate oxidation to dihydrofolate at 1 uM after 20 mins by UV spectrophotometric analysis relative to control
Test [19] concerns A549. Kind of test: Antiproliferative activity against human A549 cells at 20 uM after 72 hrs by MTT assay relative to control. The following applies: A549, 72 h. The class given is functional, cell-based.

Active and inactive are the calls of the source. The rule behind the calls is not given here.

For the compound `Nc1nc(N)c2cc(CSC(=S)N3CCN(C4CCCCC4)CC3)ccc2n1`, the IC50 in test [1] was 6.8 µM; in test [2] it was 4.71 µM; in test [3], 8.4 µM; in [4], 5.96 µM; in test [5], 4.05 µM.
On the same counts, the results for `Nc1nc(N)c2cc(CSC(=S)N3CCN(c4ccc(Cl)cc4)CC3)ccc2n1` are 4.88 µM, 5.21 µM, 7.38 µM, 6.99 µM and 7.48 µM.
For `COc1ccc(N2CCN(C(=S)SCc3ccc4nc(N)nc(N)c4c3)CC2)cc1`, the IC50 in test [6] was 5.96 µM; in [1], 1.58 µM; in test [2], 1.59 µM; in [3], 2.27 µM; in test [4], 1.66 µM; in [5] it was 1.77 µM. The inhibition in test [7] is 15.2%; in test [9] it was 24%. Also, the result in [8] was Active. Further, the Activity in test [10] was 52.36%; in test [11] it was 33.34%; in test [13], 14.29%. Further, the Ratio in test [12] is given as 0.76.
Take `Nc1nc(N)c2cc(CSC(=S)N3CCN(c4ccc(O)cc4)CC3)ccc2n1`: the IC50 was 5.09 µM in test [1]; 4.21 µM in test [2]; > 20 µM in test [14]; 5.98 µM in test [3]; 5.18 µM in test [4].
As to `Nc1nc(N)c2cc(CSC(=S)N3CCN(Cc4ccccc4)CC3)ccc2n1`, the IC50 in test [1] amounted to 8.46 µM; in [2], 3.31 µM; in [3], 4.91 µM; in [4] it was 8.35 µM; in [5], 8.49 µM.
Regarding `CC[C@@]1(O)C(=O)OCc2c1cc1n(c2=O)Cc2cc3ccccc3nc2-1` [CAMPTOTHECIN], the Ratio in test [12] amounted to 0.64.
In the case of `Nc1nc(N)c2cc(CSC(=S)N3CCN(c4ccccc4)CC3)ccc2n1`, the IC50 in [1] was 2.95 µM; in test [2], 2.97 µM; in test [3], 4.12 µM; in [4], 2.84 µM; in test [5], 2.76 µM.
With `CN1CCN(C(=S)SCc2ccc3nc(N)nc(N)c3c2)CC1`, the IC50 in test [2] is 9.2 µM; in test [15], > 20 µM; in test [14] it was > 20 µM; in [16], > 20 µM; in test [17], > 20 µM.
Turning to `Nc1nc(N)c2cc(CSC(=S)N3CCN(c4ccc([N+](=O)[O-])cc4)CC3)ccc2n1`, the IC50 in [6] amounted to 1.61 µM; in [1], 1.47 µM; in test [2] it was 1.91 µM; in test [3], 4.68 µM; in [4] it was 1.66 µM; in test [5], 3.32 µM. The results for the inhibition in test [7] and in [9] were 14.1% and 29%, respectively. For the same compound, the outcome in test [8] was Active. Also, the Activity in test [10] was found to be 44.74%; in test [11], 39.46%; in [13] it was 15.8%. For the same compound, the Ratio in [12] is reported as 0.67.
On to `Cc1nc(=O)c2cc(CN(C)c3ccc(C(=O)N[C@@H](CCC(=O)O)C(=O)O)s3)ccc2[nH]1`, for which the inhibition in test [18] was determined as 94.2%.
Consider `Cc1ccccc1N1CCN(C(=S)SCc2ccc3nc(N)nc(N)c3c2)CC1`, for which the IC50 in test [1] came out at 4.23 µM; in [2] it was 3.92 µM; in test [3], 11.8 µM; in [5], 2.95 µM.
As for `Cc1ccc(N2CCN(C(=S)SCc3ccc4nc(N)nc(N)c4c3)CC2)cc1`, the IC50 was 2.48 µM in [1]; 2.19 µM in test [2]; 5.51 µM in test [3]; 2.13 µM in test [4]; 3.02 µM in [5].
With `Nc1nc(N)c2cc(CSC(=S)N3CCN(c4ccc(F)cc4)CC3)ccc2n1`, the concentration for half-maximal inhibition (IC50) in test [6] turned out to be 2.11 µM; in test [1] it was 1.92 µM; in test [2], 2.04 µM; in test [3], 3.27 µM; in test [4] it was 1.84 µM; in test [5], 2.05 µM. The inhibition in test [7] is 19.9%; in [9], 35%. Moreover, in test [8], the result was Active. For the same compound, the Activity in test [10] worked out at 46.63%; in test [11] it was 39.22%; in [13], 14.15%. The Ratio in test [12] came to 0.45.
Consider `Nc1nc(N)c2cc(CSC(=S)N3CCN(c4ccc(F)cc4F)CC3)ccc2n1`, for which the IC50 in test [1] stood at 3.67 µM; in [2] it was 5.12 µM; in test [3], 5.15 µM; in test [4], 3.8 µM; in test [5] it was 5.02 µM.
Take `Cc1ccc(N2CCN(C(=S)SCc3ccc4nc(N)nc(N)c4c3)CC2)c(C)c1`: the IC50 worked out at 3.12 µM in [1]; 3 µM in test [2]; 4.07 µM in test [3]; 3.19 µM in test [4]; 2.97 µM in [5].
Turning to `O=c1[nH]cc(F)c(=O)[nH]1` [FLUOROURACIL], the IC50 in test [1] is 32.2 µM; in test [2], 3.52 µM; in test [3], 5.53 µM; in test [4] it was 43.7 µM; in [5], 24.5 µM. In addition, the outcome in [8] was inactive. The Activity in [10] came to 45.44%; in test [11], 47.75%; in [13] it was 6.81%.
Turning to `Nc1nc(N)c2cc(CSC(=S)N3CCN(c4ccccc4Cl)CC3)ccc2n1`, the IC50 was determined as 3.19 µM in [1]; 3.61 µM in [2]; 5.49 µM in [3]; 4.05 µM in [4]; 3.9 µM in test [5].
On the same counts, the results for `Nc1nc(N)c2cc(CSC(=S)N3CCN(c4ccccn4)CC3)ccc2n1` are 5.11 µM, 3.96 µM, 5.96 µM, 5.09 µM and 6.2 µM.
As to `Nc1nc(N)c2cc(CSC(=S)N3CCN(c4ccccc4F)CC3)ccc2n1`, the IC50 worked out at 4.84 µM in test [1], 6.46 µM in [2], 6.66 µM in test [4] and 5.42 µM in test [5].
Take `Nc1nc(N)c2cc(CSC(=S)N3CCN(c4ccc(C(F)(F)F)cc4)CC3)ccc2n1`: the IC50 in [19] is > 20 µM; in test [1] it was 7.4 µM; in test [15], > 20 µM; in test [14], > 20 µM; in test [16] it was > 20 µM.
`Nc1nc(N)c2cc(CSC(=S)N3CCN(c4ccc(Cl)c(Cl)c4)CC3)ccc2n1`: the IC50 amounted to 2.37 µM in test [1]; 2.94 µM in test [2]; 6.68 µM in test [3]; 3.06 µM in test [4]; 3.48 µM in [5].
`CC(=O)c1ccc(N2CCN(C(=S)SCc3ccc4nc(N)nc(N)c4c3)CC2)cc1`: the IC50 in [1] turned out to be 2.49 µM; in test [2], 2.55 µM; in test [3], 8.26 µM; in test [4], 2.04 µM; in [5], 2.28 µM.
On the same counts, the results for `Nc1nc(N)c2cc(CSC(=S)N3CCN(c4ccccc4[N+](=O)[O-])CC3)ccc2n1` are 4.35 µM, 4.36 µM, 5.52 µM, 4.88 µM and 4.31 µM.
For `Nc1nc(N)c2cc(CSC(=S)N3CCN(c4ncccn4)CC3)ccc2n1`, the IC50 in [1] is 4.19 µM; in test [2] it was 4.01 µM; in [3], 5.84 µM; in test [4], 4.36 µM; in test [5], 4.72 µM.

These data come from ChEMBL document CHEMBL2385040, “Synthesis and antiproliferative activity of 4-substituted-piperazine-1-carbodithioate derivatives of 2,4-diaminoquinazoline” (Eur J Med Chem, 2013).
